Laboratory results taken from patent US11214594B2, “Antimicrobial peptide having synergistic antibacterial effect with antibiotics on multidrug resistant bacteria, and use thereof” (priority 2016, dated 2022).
In brackets after ≈: the same amount, converted by molar mass. Where two headings read alike, the source gives them in different places. Where a SMILES comes first, the peptide text is derived from it.

Assays:
[1] = system: P. aeruginosa; test: microbe, parasite or virus in culture; format: cell-based, Pseudomonas aeruginosa
Outline: (§1)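 Broth microdilution in MH medium: strains diluted to 2×10^6 CFU were mixed with equal volumes of twofold serial peptide dilutions in MH medium. MIC was taken as the lowest peptide concentration preventing bacterial growth.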

[2] = system: A. baumannii; test: microbe, parasite or virus in culture; format: cell-based, Acinetobacter baumannii
Outline: as §1

[3] = system: MDRAB 12035; test: microbe, parasite or virus in culture; format: cell-based, Acinetobacter baumannii
Outline: as §1

[4] = system: MDRST 8007; test: Minimal inhibitory concentration (MIC), single agent; format: cell-based, Salmonella typhimurium; details: agent alone
Procedure: For the antibacterial activity, a minimal inhibitory concentration (MIC) of a peptide in which fungus bodies were not split in an MH medium with sufficient nutrients was measured.
Specifically, the strains described in the following [Table 2] were purchased and diluted with an MH medium such that the number of bacteria was 2×10^6 colony-forming units (CFUs), 100 μl of each of the diluted strains was aliquoted into a 96-well microtiter plate, and then 100 μl of a peptide solution diluted with the MH medium (solution diluted stepwise at 2: 1) was added to each well.

[5] = system: S. epidermidis; test: microbe, parasite or virus in culture; format: cell-based, Staphylococcus epidermidis
Outline: as §1

[6] = system: E. coli; test: MIC of antibiotic during combined treatment with antimicrobial peptide; format: cell-based, Escherichia coli; details: for Antibiotic MIC, Erythromycin / Antibiotic MIC, Linezolid / Antibiotic MIC, Vancomycin: E. coli
Outline: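 Antibiotic diluted in MH medium, dispensed per well with peptide; setup repeated with roles reversed; MIC read per combination.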

[7] = system: A. baumannii; test: as above; format: cell-based, Acinetobacter baumannii; details: for Antibiotic MIC, Erythromycin / Antibiotic MIC, Linezolid / Antibiotic MIC, Vancomycin: A. baumannii
Procedure: Thereafter, the MIC value of each mixed solution was determined by diluting the antibiotic solution with the MH medium, adding 50 μl of the diluted solution to each well, and performing an experiment even under a reversed condition.

[8] = system: MDRAB 12035; test: as above; format: cell-based, Acinetobacter baumannii
Procedure: (§2) Specifically, the strains described in [Table 2] were prepared and diluted with an MH medium such that the number of bacteria was 2×10^6 colony-forming units (CFUs) per 1 ml, 100 μl of the diluted strains was each aliquoted into a 96-well microtiter plate, and then 50 μl of a peptide solution diluted with the MH medium from the MIC value (solution diluted stepwise at 2: 1) was added to each well. Thereafter, the MIC value of each mixed solution was determined by diluting the antibiotic solution with the MH medium, adding 50 μl of the diluted solution to each well, and performing an experiment even under a reversed condition.

[9] = system: E. coli; format: cell-based, Escherichia coli; details: E. coli
Procedure: as §2

[10] = system: MDREC 1229; format: cell-based, Escherichia coli
Procedure: as §2

[11] = system: A. baumannii; test: MIC of antimicrobial peptide during combined treatment with antibiotic; format: cell-based, Acinetobacter baumannii
Outline: (§3)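 Antibiotic MIC came from antibiotic dilutions added to bacteria (2×10^6 CFU/ml, MH medium) already combined with peptide serially diluted 2:1 from its own MIC. Swapping the roles of the two agents gave the peptide MIC.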

[12] = system: MDRAB 12035; test: as above; format: cell-based, Acinetobacter baumannii
Outline: as §3

[13] = combined with peptide at 1 μg/ml
[14] = combined with peptide at 2 μg/ml
[15] = combined with peptide at 4 μg/ml
[16] = combined with peptide at 6 μg/ml
[17] = combined with peptide at 8 μg/ml
[18] = combined with peptide at 16 μg/ml
[19] = combined with peptide at 32 μg/ml
[20] = combined with peptide at 64 μg/ml
[21] = peptide treatment concentration 1 μg/ml
[22] = peptide treatment concentration 2 μg/ml
[23] = peptide treatment concentration 4 μg/ml
[24] = peptide treatment concentration 6 μg/ml
[25] = peptide treatment concentration 8 μg/ml
[26] = peptide treatment concentration 16 μg/ml
[27] = peptide treatment concentration 32 μg/ml
[28] = peptide treatment concentration 64 μg/ml
[29] = with Erythromycin […] (Conc./MIC 1)
[30] = erythromycin 4 μg/ml (Conc./MIC 1/8)
[31] = erythromycin 8 μg/ml (Conc./MIC 1/4)
[32] = erythromycin 16 μg/ml (Conc./MIC 1/2)
[33] = erythromycin 32 μg/ml (Conc./MIC 1)
[34] = vancomycin 512 μg/ml (Conc./MIC 1/2)
[35] = vancomycin 1024 μg/ml (Conc./MIC 1)

## CC[C@H](C)[C@H](NC(=O)[C@H](CCCCN)NC(=O)[C@H](Cc1c[nH]c2ccccc12)NC(=O)[C@@H](N)CCCNC(=N)N)C(=O)N[C@@H](Cc1ccccc1)C(=O)N[C@@H](CCCCN)C(=O)N[C@@H](CCCCN)C(=O)N[C@H](C(=O)N1CCC[C@H]1C(=O)N[C@@H](CCCCN)C(=O)N[C@@H](CC(C)C)C(=O)N[C@@H](CC(C)C)C(=O)N[C@@H](Cc1c[nH]cn1)C(=O)N[C@@H](CO)C(=O)N[C@@H](CC(C)C)C(=O)N[C@@H](CCCCN)C(=O)N[C@@H](CCCCN)C(=O)N[C@@H](Cc1c[nH]c2ccccc12)C(N)=O)[C@@H](C)CC [PapMA-10, RWK IFK KIP KLL HSL KKW-NH2] (H-RWKIFKKIPKLLHSLKKW-NH2; N-terminus assumed)
[1]
  Minimal inhibitory concentration MIC: 8 µg/mL (≈ 3.41 µM)
[2]
  Minimal inhibitory concentration MIC: 16 µg/mL (≈ 6.81 µM)
  Peptide MIC, peptide alone: 16 µg/mL
[3]
  Minimal inhibitory concentration MIC: 32 µg/mL (≈ 13.6 µM)
  Peptide MIC, peptide alone: 32 µg/mL
[4]
  Minimal inhibitory concentration MIC: 32 µg/mL (≈ 13.6 µM)
[5]
  Minimal inhibitory concentration MIC: >128 µg/mL
[6]; E. coli and MDREC1229
  Synergistic effect of antibacterial activity with existing antibiotics compared with PapMA-1: level similar to that of the PapMA-1 peptide
[6]; erythromycin combined with peptide at 1 μg/ml
  Antibiotic MIC, Erythromycin: 128 µg/mL
[6]; erythromycin combined with peptide at 2 μg/ml
  Antibiotic MIC, Erythromycin: 64 µg/mL
[6]; erythromycin combined with peptide at 4 μg/ml
  Antibiotic MIC, Erythromycin: 32 µg/mL
[6]; erythromycin combined with peptide at 6 μg/ml
  Antibiotic MIC, Erythromycin: 8 µg/mL
[6]; erythromycin combined with peptide at 8 μg/ml
  Antibiotic MIC, Erythromycin: 0.5 µg/mL
[6]; erythromycin combined with peptide at 16 μg/ml
  Antibiotic MIC, Erythromycin: 0.25 µg/mL
[6]; erythromycin combined with peptide at 32 μg/ml
  Antibiotic MIC, Erythromycin: 0 µg/mL
[6]; erythromycin combined with peptide at 64 μg/ml
  Antibiotic MIC, Erythromycin: 0 µg/mL
[6]; linezolid combined with peptide at 1 μg/ml
  Antibiotic MIC, Linezolid: >128 µg/mL
[6]; linezolid combined with peptide at 2 μg/ml
  Antibiotic MIC, Linezolid: >128 µg/mL
[6]; linezolid combined with peptide at 4 μg/ml
  Antibiotic MIC, Linezolid: 128 µg/mL
[6]; linezolid combined with peptide at 6 μg/ml
  Antibiotic MIC, Linezolid: 64 µg/mL
[6]; linezolid combined with peptide at 8 μg/ml
  Antibiotic MIC, Linezolid: 8 µg/mL
[6]; linezolid combined with peptide at 16 μg/ml
  Antibiotic MIC, Linezolid: 4 µg/mL
[6]; linezolid combined with peptide at 32 μg/ml
  Antibiotic MIC, Linezolid: 0 µg/mL
[6]; linezolid combined with peptide at 64 μg/ml
  Antibiotic MIC, Linezolid: 0 µg/mL
[6]; vancomycin combined with peptide at 1 μg/ml
  Antibiotic MIC, Vancomycin: >128 µg/mL
[6]; vancomycin combined with peptide at 2 μg/ml
  Antibiotic MIC, Vancomycin: >128 µg/mL
[6]; vancomycin combined with peptide at 4 μg/ml
  Antibiotic MIC, Vancomycin: 64 µg/mL
[6]; vancomycin combined with peptide at 6 μg/ml
  Antibiotic MIC, Vancomycin: 32 µg/mL
[6]; vancomycin combined with peptide at 8 μg/ml
  Antibiotic MIC, Vancomycin: 16 µg/mL
[6]; vancomycin combined with peptide at 16 μg/ml
  Antibiotic MIC, Vancomycin: 2 µg/mL
[6]; vancomycin combined with peptide at 32 μg/ml
  Antibiotic MIC, Vancomycin: 0 µg/mL
[6]; vancomycin combined with peptide at 64 μg/ml
  Antibiotic MIC, Vancomycin: 0 µg/mL
[7]; A. baumannii and MDRAB 12035
  Synergistic effect of antibacterial activity with existing antibiotics compared with PapMA-1: level similar to that of PapMA-1 peptide
[7]; [13]
  Antibiotic MIC, Erythromycin: 32 µg/mL
  Antibiotic MIC, Linezolid: >128 µg/mL
  Antibiotic MIC, Vancomycin: >128 µg/mL
[7]; [14]
  Antibiotic MIC, Erythromycin: 16 µg/mL
  Antibiotic MIC, Linezolid: 128 µg/mL
  Antibiotic MIC, Vancomycin: 64 µg/mL
[7]; [15]
  Antibiotic MIC, Erythromycin: 8 µg/mL
  Antibiotic MIC, Linezolid: 64 µg/mL
  Antibiotic MIC, Vancomycin: 16 µg/mL
[7]; [16]
  Antibiotic MIC, Erythromycin: 2 µg/mL
  Antibiotic MIC, Linezolid: 32 µg/mL
  Antibiotic MIC, Vancomycin: 16 µg/mL
[7]; [17]
  Antibiotic MIC, Erythromycin: 0.5 µg/mL
  Antibiotic MIC, Linezolid: 8 µg/mL
  Antibiotic MIC, Vancomycin: 4 µg/mL
[7]; [18]
  Antibiotic MIC, Erythromycin: 0 µg/mL
  Antibiotic MIC, Linezolid: 0 µg/mL
  Antibiotic MIC, Vancomycin: 0 µg/mL
[7]; [19]
  Antibiotic MIC, Erythromycin: 0 µg/mL
  Antibiotic MIC, Linezolid: 0 µg/mL
  Antibiotic MIC, Vancomycin: 0 µg/mL
[7]; [20]
  Antibiotic MIC, Erythromycin: 0 µg/mL
  Antibiotic MIC, Linezolid: 0 µg/mL
  Antibiotic MIC, Vancomycin: 0 µg/mL
[8]; [21]
  Erythromycin MIC during combined treatment with peptide: 32 µg/mL
  Linezolid MIC during combined treatment with peptide: >128 µg/mL
  Vancomycin MIC during combined treatment with peptide: >128 µg/mL
[8]; [22]
  Erythromycin MIC during combined treatment with peptide: 32 µg/mL
  Linezolid MIC during combined treatment with peptide: >128 µg/mL
  Vancomycin MIC during combined treatment with peptide: >128 µg/mL
[8]; [23]
  Erythromycin MIC during combined treatment with peptide: 16 µg/mL
  Linezolid MIC during combined treatment with peptide: 64 µg/mL
  Vancomycin MIC during combined treatment with peptide: 64 µg/mL
[8]; [24]
  Erythromycin MIC during combined treatment with peptide: 8 µg/mL
  Linezolid MIC during combined treatment with peptide: 32 µg/mL
  Vancomycin MIC during combined treatment with peptide: 32 µg/mL
[8]; [25]
  Erythromycin MIC during combined treatment with peptide: 8 µg/mL
  Linezolid MIC during combined treatment with peptide: 16 µg/mL
  Vancomycin MIC during combined treatment with peptide: 16 µg/mL
[8]; [26]
  Erythromycin MIC during combined treatment with peptide: 4 µg/mL
  Linezolid MIC during combined treatment with peptide: 8 µg/mL
  Vancomycin MIC during combined treatment with peptide: 4 µg/mL
[8]; [27]
  Erythromycin MIC during combined treatment with peptide: 0 µg/mL
  Linezolid MIC during combined treatment with peptide: 2 µg/mL
  Vancomycin MIC during combined treatment with peptide: 4 µg/mL
[8]; [28]
  Erythromycin MIC during combined treatment with peptide: 0 µg/mL
  Linezolid MIC during combined treatment with peptide: 0 µg/mL
  Vancomycin MIC during combined treatment with peptide: 0 µg/mL
[9]; [29]
  Peptide MIC: 0 µg/mL
[9]; with Linezolid […] (Conc./MIC 1)
  Peptide MIC: 0 µg/mL
[9]; with Vancomycin 1024 μg/ml (Conc./MIC 1)
  Peptide MIC: 0 µg/mL
[10]; [29]
  Peptide MIC: 0 µg/mL
[10]; with Linezolid 512 μg/ml (Conc./MIC 1)
  Peptide MIC: 0 µg/mL
[11]; [30]
  Peptide MIC during treatment with antibiotic: 8 µg/mL
[11]; [31]
  Peptide MIC during treatment with antibiotic: 4 µg/mL
[11]; [32]
  Peptide MIC during treatment with antibiotic: 2 µg/mL
[11]; [33]
  Peptide MIC during treatment with antibiotic: 0 µg/mL
[11]; linezolid 32 μg/ml (Conc./MIC 1/8)
  Peptide MIC during treatment with antibiotic: 8 µg/mL
[11]; linezolid 64 μg/ml (Conc./MIC 1/4)
  Peptide MIC during treatment with antibiotic: 4 µg/mL
[11]; linezolid […] (Conc./MIC 1)
  Peptide MIC during treatment with antibiotic: 0 µg/mL
[11]; linezolid […] (Conc./MIC 1/2)
  Peptide MIC during treatment with antibiotic: 4 µg/mL
[11]; [34]
  Peptide MIC during treatment with antibiotic: 1 µg/mL
[11]; [35]
  Peptide MIC during treatment with antibiotic: 0 µg/mL
[11]; vancomycin […] (Conc./MIC 1/4)
  Peptide MIC during treatment with antibiotic: 1 µg/mL
[11]; vancomycin […] (Conc./MIC 1/8)
  Peptide MIC during treatment with antibiotic: 4 µg/mL
[12]; [30]
  Peptide MIC during treatment with erythromycin: 16 µg/mL
[12]; [31]
  Peptide MIC during treatment with erythromycin: 8 µg/mL
[12]; [32]
  Peptide MIC during treatment with erythromycin: 4 µg/mL
[12]; [33]
  Peptide MIC during treatment with erythromycin: 0 µg/mL
[12]; linezolid 64 μg/ml (Conc./MIC 1/8)
  Peptide MIC during treatment with linezolid: 4 µg/mL
[12]; linezolid 512 μg/ml (Conc./MIC 1)
  Peptide MIC during treatment with linezolid: 0 µg/mL
[12]; linezolid […] (Conc./MIC 1/2)
  Peptide MIC during treatment with linezolid: 2 µg/mL
[12]; linezolid […] (Conc./MIC 1/4)
  Peptide MIC during treatment with linezolid: 2 µg/mL
[12]; [34]
  Peptide MIC during treatment with vancomycin: 2 µg/mL
[12]; [35]
  Peptide MIC during treatment with vancomycin: 1 µg/mL
[12]; vancomycin […] (Conc./MIC 1/4)
  Peptide MIC during treatment with vancomycin: 4 µg/mL
[12]; vancomycin […] (Conc./MIC 1/8)
  Peptide MIC during treatment with vancomycin: 4 µg/mL
